Data from PubChem BioAssay (NCI).
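Grown in 96-well plates, cells were treated for 48 hours with each compound at five concentrations. Insufficient inhibition: endpoint recorded as highest concentration tested. The concentration for 50% growth inhibition is given as GI50. The concentration for full growth arrest is given as TGI.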

Experiments:
Assay in all cases: inhibition of tumour cell growth, NCI panel, 48 h
NCI/ADR-RES ovarian = test system: NCI/ADR-RES ovarian
NCI-H226 lung = test system: NCI-H226 lung
A498 renal = test system: A498 renal
UO-31 renal = test system: UO-31 renal
SK-MEL-2 melanoma = test system: SK-MEL-2 melanoma
K-562 leukemia = test system: K-562 leukemia
CCRF-CEM leukemia = test system: CCRF-CEM leukemia
MOLT-4 leukemia = test system: MOLT-4 leukemia
OVCAR-5 ovarian = test system: OVCAR-5 ovarian
SW-620 colon = test system: SW-620 colon
MDA-MB-435 = test system: MDA-MB-435
MCF7 breast = test system: MCF7 breast
MALME-3M melanoma = test system: MALME-3M melanoma
SK-OV-3 ovarian = test system: SK-OV-3 ovarian
HL-60(TB) leukemia = test system: HL-60(TB) leukemia
CAKI-1 renal = test system: CAKI-1 renal
SN12C renal = test system: SN12C renal
HT29 colon = test system: HT29 colon
SF-295 CNS = test system: SF-295 CNS
U251 CNS = test system: U251 CNS
NCI-H23 lung = test system: NCI-H23 lung
COLO 205 colon = test system: COLO 205 colon
KM12 colon = test system: KM12 colon
OVCAR-4 ovarian = test system: OVCAR-4 ovarian
786-0 renal = test system: 786-0 renal
HCT-15 colon = test system: HCT-15 colon
HCT-116 colon = test system: HCT-116 colon
HS 578T breast = test system: HS 578T breast
OVCAR-3 ovarian = test system: OVCAR-3 ovarian
T-47D breast = test system: T-47D breast
A549 NSCLC = test system: A549 NSCLC
NCI-H460 lung = test system: NCI-H460 lung
TK-10 renal = test system: TK-10 renal
PC-3 prostate = test system: PC-3 prostate
HOP-62 NSCLC = test system: HOP-62 NSCLC
BT-549 breast = test system: BT-549 breast
OVCAR-8 ovarian = test system: OVCAR-8 ovarian
SNB-75 CNS = test system: SNB-75 CNS
SK-MEL-5 melanoma = test system: SK-MEL-5 melanoma
EKVX NSCLC = test system: EKVX NSCLC
MDA-MB-231 breast = test system: MDA-MB-231 breast
DU-145 prostate = test system: DU-145 prostate
RPMI-8226 leukemia = test system: RPMI-8226 leukemia
IGROV1 ovarian = test system: IGROV1 ovarian
RXF 393 renal = test system: RXF 393 renal
UACC-62 melanoma = test system: UACC-62 melanoma
UACC-257 melanoma = test system: UACC-257 melanoma
SF-539 CNS = test system: SF-539 CNS
ACHN renal = test system: ACHN renal
NCI-H522 lung = test system: NCI-H522 lung
SNB-19 CNS = test system: SNB-19 CNS
LOX IMVI melanoma = test system: LOX IMVI melanoma
M14 melanoma = test system: M14 melanoma
SK-MEL-28 melanoma = test system: SK-MEL-28 melanoma
HOP-92 NSCLC = test system: HOP-92 NSCLC
SR leukemia = test system: SR leukemia
SF-268 CNS = test system: SF-268 CNS
HCC-2998 colon = test system: HCC-2998 colon

COc1ccc(/C=C(\C#N)c2ccc(OC)cc2)cc1
GI50 (NCI/ADR-RES ovarian): 3.13 µM | TGI (NCI/ADR-RES ovarian): 29.3 µM | GI50 (NCI-H226 lung): > 100 µM | TGI (NCI-H226 lung): > 100 µM | GI50 (A498 renal): > 100 µM | TGI (A498 renal): > 100 µM | GI50 (UO-31 renal): > 100 µM | TGI (UO-31 renal): > 100 µM | GI50 (SK-MEL-2 melanoma): > 100 µM | TGI (SK-MEL-2 melanoma): > 100 µM | GI50 (K-562 leukemia): 2.78 µM | TGI (K-562 leukemia): > 100 µM | GI50 (CCRF-CEM leukemia): 9.47 µM | TGI (CCRF-CEM leukemia): > 100 µM | GI50 (MOLT-4 leukemia): 5.49 µM | TGI (MOLT-4 leukemia): > 100 µM | GI50 (OVCAR-5 ovarian): 62.3 µM | TGI (OVCAR-5 ovarian): > 100 µM | GI50 (SW-620 colon): 5.81 µM | TGI (SW-620 colon): > 100 µM | GI50 (MDA-MB-435): 0.563 µM | TGI (MDA-MB-435): 18.4 µM | GI50 (MCF7 breast): 41.5 µM | TGI (MCF7 breast): > 100 µM | GI50 (MALME-3M melanoma): > 100 µM | TGI (MALME-3M melanoma): > 100 µM | GI50 (SK-OV-3 ovarian): 42 µM | TGI (SK-OV-3 ovarian): > 100 µM | GI50 (HL-60(TB) leukemia): 13.5 µM | TGI (HL-60(TB) leukemia): > 100 µM | GI50 (CAKI-1 renal): 13.1 µM | TGI (CAKI-1 renal): > 100 µM | GI50 (SN12C renal): 81.7 µM | TGI (SN12C renal): > 100 µM | GI50 (HT29 colon): 7.1 µM | TGI (HT29 colon): > 100 µM | GI50 (SF-295 CNS): 8.01 µM | TGI (SF-295 CNS): > 100 µM | GI50 (U251 CNS): 20.6 µM | TGI (U251 CNS): > 100 µM | GI50 (NCI-H23 lung): 9.77 µM | TGI (NCI-H23 lung): > 100 µM | GI50 (COLO 205 colon): 21.1 µM | TGI (COLO 205 colon): > 100 µM | GI50 (KM12 colon): 3.87 µM | TGI (KM12 colon): > 100 µM | GI50 (OVCAR-4 ovarian): 27.4 µM | TGI (OVCAR-4 ovarian): > 100 µM | GI50 (786-0 renal): > 100 µM | TGI (786-0 renal): > 100 µM | GI50 (HCT-15 colon): 4.56 µM | TGI (HCT-15 colon): > 100 µM | GI50 (HCT-116 colon): 7.15 µM | TGI (HCT-116 colon): > 100 µM | GI50 (HS 578T breast): 82.2 µM | TGI (HS 578T breast): > 100 µM | GI50 (OVCAR-3 ovarian): 7.59 µM | TGI (OVCAR-3 ovarian): 52 µM | GI50 (T-47D breast): 32.2 µM | TGI (T-47D breast): > 100 µM | GI50 (A549 NSCLC): > 100 µM | TGI (A549 NSCLC): > 100 µM | GI50 (NCI-H460 lung): 7.31 µM | TGI (NCI-H460 lung): > 100 µM | GI50 (TK-10 renal): > 100 µM | TGI (TK-10 renal): > 100 µM | GI50 (PC-3 prostate): 30 µM | TGI (PC-3 prostate): > 100 µM | GI50 (HOP-62 NSCLC): 69.9 µM | TGI (HOP-62 NSCLC): > 100 µM | GI50 (BT-549 breast): 22.9 µM | TGI (BT-549 breast): > 100 µM | GI50 (OVCAR-8 ovarian): 91.8 µM | TGI (OVCAR-8 ovarian): > 100 µM | GI50 (SNB-75 CNS): 87.6 µM | TGI (SNB-75 CNS): > 100 µM | GI50 (SK-MEL-5 melanoma): 4.85 µM | TGI (SK-MEL-5 melanoma): > 100 µM | GI50 (EKVX NSCLC): 14.5 µM | TGI (EKVX NSCLC): > 100 µM | GI50 (MDA-MB-231 breast): 33.6 µM | TGI (MDA-MB-231 breast): > 100 µM | GI50 (DU-145 prostate): 14.9 µM | TGI (DU-145 prostate): > 100 µM | GI50 (RPMI-8226 leukemia): 9.48 µM | TGI (RPMI-8226 leukemia): > 100 µM | GI50 (IGROV1 ovarian): 46.1 µM | TGI (IGROV1 ovarian): > 100 µM | GI50 (RXF 393 renal): 13.7 µM | TGI (RXF 393 renal): > 100 µM | GI50 (UACC-62 melanoma): 10.3 µM | TGI (UACC-62 melanoma): > 100 µM | GI50 (UACC-257 melanoma): > 100 µM | TGI (UACC-257 melanoma): > 100 µM | GI50 (SF-539 CNS): 20.7 µM | TGI (SF-539 CNS): > 100 µM | GI50 (ACHN renal): 76.1 µM | TGI (ACHN renal): > 100 µM | GI50 (NCI-H522 lung): 42.8 µM | TGI (NCI-H522 lung): > 100 µM | GI50 (SNB-19 CNS): 82.8 µM | TGI (SNB-19 CNS): > 100 µM | GI50 (LOX IMVI melanoma): 13.3 µM | TGI (LOX IMVI melanoma): > 100 µM | GI50 (M14 melanoma): 8.18 µM | TGI (M14 melanoma): > 100 µM | GI50 (SK-MEL-28 melanoma): > 100 µM | TGI (SK-MEL-28 melanoma): > 100 µM | GI50 (HOP-92 NSCLC): 23.5 µM | TGI (HOP-92 NSCLC): > 100 µM | GI50 (SR leukemia): 2.07 µM | TGI (SR leukemia): > 100 µM | GI50 (SF-268 CNS): > 100 µM | TGI (SF-268 CNS): > 100 µM | GI50 (HCC-2998 colon): 7.38 µM | TGI (HCC-2998 colon): > 100 µM
